Literature values, collected in patent US20210379103A1, “ANISOTROPIC NANOPARTICLE COMPOSITIONS AND METHODS” (Buckyol Limited, priority 2017, published 2021).

Settings: C60(OH)8 with OH-groups forming a compact island

- hydration energy: −224 kJ per mol
Substance: octa-hydroxylated fullerene [C60(OH)8]
